The values below come from US20140366219A1, “Increasing Soybean Defense Against Pests” (priority 2011, published 2014).

By Km is commonly meant the concentration of substrate that gives half-maximal velocity.

In data set [1] the target is T1, AtMES9 (Arabidopsis thaliana, UniProt O23171).
T1 sequence (O23171 1-256): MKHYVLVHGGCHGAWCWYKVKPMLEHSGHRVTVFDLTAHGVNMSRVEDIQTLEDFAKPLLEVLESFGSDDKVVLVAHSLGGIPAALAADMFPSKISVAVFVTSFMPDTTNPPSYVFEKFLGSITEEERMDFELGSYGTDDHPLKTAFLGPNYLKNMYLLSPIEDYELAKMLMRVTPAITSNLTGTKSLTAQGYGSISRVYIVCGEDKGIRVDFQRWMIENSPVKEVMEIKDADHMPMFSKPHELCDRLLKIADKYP
The note with it: esterase activity toward MeSA; cited from earlier work.

The target of data set [2] is T2, NtSABP2 (Nicotiana tabacum, UniProt Q6RYA0).
T2 sequence (Q6RYA0 1-260): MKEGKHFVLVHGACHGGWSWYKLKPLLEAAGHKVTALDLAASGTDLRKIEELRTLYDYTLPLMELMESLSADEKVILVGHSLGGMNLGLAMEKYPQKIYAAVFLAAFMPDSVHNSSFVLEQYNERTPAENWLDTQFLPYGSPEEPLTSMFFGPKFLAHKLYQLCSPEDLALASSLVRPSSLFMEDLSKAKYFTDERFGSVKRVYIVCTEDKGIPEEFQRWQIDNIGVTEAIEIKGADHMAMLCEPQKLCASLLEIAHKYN
The note with it: esterase activity toward MeSA; cited from earlier work.

The subject of data set [3] is StMES1. Particulars: esterase activity toward MeSA; cited from earlier work.
The subject of data set [4] is PtSABP2-2. Particulars: esterase activity toward MeSA; cited from earlier work.
The target of data set [5] is T3, AtMES1 (Arabidopsis thaliana, UniProt Q8S8S9).
T3 sequence (Q8S8S9 1-263): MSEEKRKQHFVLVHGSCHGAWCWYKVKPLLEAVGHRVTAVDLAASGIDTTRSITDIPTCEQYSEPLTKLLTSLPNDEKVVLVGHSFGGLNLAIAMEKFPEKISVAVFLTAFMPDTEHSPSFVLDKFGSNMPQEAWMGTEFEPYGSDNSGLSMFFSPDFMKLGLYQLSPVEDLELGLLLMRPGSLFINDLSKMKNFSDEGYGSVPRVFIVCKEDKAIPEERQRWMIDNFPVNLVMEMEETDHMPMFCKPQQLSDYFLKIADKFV
The note with it: esterase activity toward MeSA; cited from earlier work.

Data set [6] relates to PtSABP2-1. Particulars: esterase activity toward MeSA; cited from earlier work.
For data set [7], the system named is SCN race 2. Put plainly: Nematode infection and demographics assay in transgenic soybean hairy roots. The class given is in vivo, Heterodera glycines. Particulars: for reduction of susceptibility: susceptibility of vector control in susceptible background set at 100%; for (J3+J4)/total SCN ratio: overexpressing transgenic hairy roots, two weeks after inoculation. The text has this: The soybean hairy root transformation system by infection with A. rhizogenes harboring the target genes were modified and used to study soybean resistance against SCN. A. rhizogenes K599 harboring the target gene, vector control and A. rhizogenes K599 alone were used to inoculate the TN02-275 soybeans, which are susceptible to SCN race 2. To better evaluate the resistance of the target gene, A. rhizogenes harboring the vector control and A. rhizogenes K599 alone were also used to inoculate the TN02-226 soybeans, which are resistant to SCN race 2. Generation of soybean hairy roots was modified as follows: First, soybean seeds were sterilized with chlorine gas. Second, a single layer of mature soybean seeds with intact seed coats were placed in open Petri dish, which was put in a bell jar desiccator within a fume hood. A beaker with 100 ml bleach was also placed in the desiccator and added 5 ml concentrated (12N) HCl along the side of the beaker. Then the seeds were kept in the closed desiccator immediately and maintained in the chlorine gas atmosphere overnight (about 16 h). After sterilization, seeds were transferred to the autoclaved filter paper moistened with sterilized distilled water in the Petri dishes for germination in a laminar flow hood. The germinated soybean seeds were sowed in sterilized vermiculite and six seeds were grown in each cell of 18-cell germination tray. The overnight cultured bacteria lawn of A. rhizogenes K599 with binary vector pJL-OFP, pJL-OFP-35S::GUS or pJL-OFP-35S::GmSAMT1 from LB medium plate containing […] kanamycin, or a culture of A. rhizogenes K599 lacking the binary vector grown in LB medium without any antibiotics was collected and suspended in 1 ml of sterile distilled water, respectively. Soybean cotyledonary nodes and upper hypocotyls of 5-day-old seedlings with unfolded cotyledons were stabbed three times by the syringe containing the bacterial suspension. In the first week, the trays were covered with the sterile transparent lids to retain high humidity. In the subsequent three weeks, plants were transferred into pots and the A. rhizogenes wounding sites were covered by wet sterile vermiculite to continually keep high humidity. Each day soybean plants were watered using sterile B&D solution containing 1 mM CaCl2, 0.5 mM KH2PO4, 10 μM Fe-citrate, 0.25 mM MgSO4, 0.25 mM K2SO4, 1 μM MnSO4, 2 μM H3BO4, 0.5 μM ZnSO4, 2 μM CuSO4, 0.1 μM CoSO4, 0.1 μM Na2MoO4, and 1 mM KNO3. The growth conditions for soybean plants were 12 h light/12 h dark at 28° C./25° C. with irradiance from fluorescent bulbs at 150-200 μmol m^−2·s^−1. After about four weeks, the hairy roots grew to approximately 10 cm in length. Soybean transgenic roots were detected based on OFP expression, using a fluorescence stereomicroscope (Olympus SZX12 fluorescence microscope and OFP filter). The tap root and non-transgenic roots were excised under the wounding site. Transgenic roots harboring pJL-OFP-35S::GUS screened by OFP signal were immersed in GUS solution (1 mM X-Gluc), 0.5 mM potassium ferrocyanide, 0.1% (v/v) TRITON™ X-100, 100 mM sodium phosphate buffer pH 7.0), and incubated at 37° C. overnight. In the following day, the X-Gluc solution was discarded. The roots were washed repeatedly with 70% ethanol to remove chlorophyll. Transgenic roots with visual GUS stain were recorded.
To easily compare the SCN infection, one transgenic root was left for the SCN inoculation. […]

The subject of data set [8] is GmICS1 (Glyma01g25690). Put plainly: qRT-PCR of GmICS1 in transgenic hairy roots. The arrangement: species or system soybean. The note with it: Williams 82 transgenic hairy roots, without SCN treatment. (In general: Real-time PCR tracks product formation cycle by cycle.)
Data set [9] relates to GmICS2 (Glyma03g17420). Put plainly: qRT-PCR of GmICS2 in transgenic hairy roots. The arrangement: species or system soybean. Particulars: Williams 82 transgenic hairy roots, without SCN treatment.

`COC(=O)c1ccccc1O` [MeSA, methyl salicylate]: the Km in [1] is 147 µM; in data set [2] it was 8.6 µM; in data set [3] it was 57.9 µM; in data set [4], 24.6 µM; in [5], 57.3 µM; in data set [6], 68.2 µM.

B1: GmSAMT1: soybean salicylic acid methyltransferase gene (SEQ ID NO: 1), over-expressed in transgenic hairy roots via pJL-OFP-35S::GmSAMT1 (nucleic acid)
DNA: ATGGAAGTAGCACAGGTACTCCACATGAACGGTGGCGTTGGAGACGCAAGCTATGCAAACAACTCCCTTGTTCAGCAAAAGGTGATTTGTTTGACAAAGCCCATAAGAGAGGAAGCCATAAGAAGCCTCTATTGCAGCACACACCCCAGAAGCTTGGCAATTGCAGATTTGGGTTGCTCTTCTGGACCAAACACTTTATTTGTTGTGTCTGAATTCATAAAAATTGTGGAGAAGCTTTGCCGAGAGCTGAACCACAAATCTCCAGAATACAAAGTCTTTCTGAATGATCTCCCTGGGAATGACTTCAACAACATCTTCAAGTCTCTTGACAGCGTCAAAGAGAAATTGTGTGATGAAATGGAAAGTGGGATCGGTCCATGCTACTTCTCGGGTGTTCCCGGTTCTTTCTATGGAAGGGTTTTCCCATATCAAAGTCTTCATTTTGTCCATTCCTCATACAGCCTTCAATGGCTATCTAAGGTTCCTGAGGGTGTAGACAACAACAAGGGCAATGTTTACATAGGCAGTACGAGCCCCAAAAATGTTGTGAGAGCTTACTATGAGCAATTTCAGAGAGATTTCTCTCTTTTTCTCAAGTGTCGTGCAGAGGAATTGGTTGAAGGAGGACGCATGGTTCTCACATTTTTGGGAAGAAGAAGCGATGATCCATCTAGCAAGGATGGTTGCTACATTTGGGAGCTTTTGGCTACTGCTCTTAGTGATATGGTCTTGCAGGGAATCATAAGAGAAGAGCAATTAGATACTTTTAACATCCCTCAATACACTCCATCCCCATCTGAAGTGAAATTGGAAGTTCTTAAAGAAGGATCATTCGCCATCAATCGTCTAGAGGTTTCTGAGGTGAATTGGAATGCTCTCGATGAGTGGAATGCTCTAGACTTTGAATCTGAAAGGTCTGAATCACTTAGTGATGGTGAATACAATGTGGCACAGTGCATGAGGGCTGTGGCAGAACCTATGCTGATTAGCCACTTTGGTGAAGCTATCATTGAAGAGGTTTTTTGCCGCTACCAGCAAATCTTGGCTGAACGTATGTCCAAGGAGAAAACCAAGTTCATCAATGTTACCATATTATTGACTAGAAAAGCATAA
modifications: Glycine Max
For B1, the values for the reduction of susceptibility in data set [7] (TN02-275 background) and in data set [7] (Williams 82 background) were 85.6% and 71.2%, respectively. In addition, the “(J3+J4)/total SCN ratio” value in data set [7] (TN02-275 background) is reported as 3.4%; in data set [7] (Williams 82 background), 5.3%. The “GmICS1 transcript abundance relative to controls” value in [8] amounted to 5.3 times. The “GmICS2 transcript abundance relative to controls” value in data set [9] was 8.2 times.
